Experimental data: ChEMBL document CHEMBL1909046, “DrugMatrix in vitro pharmacology data”

Tests used:
[1] = target: T1, Alpha-1A adrenergic receptor (Rattus norvegicus, UniProt P43140); assay: DRUGMATRIX: Alpha-1A adrenergic receptor radioligand binding (ligand: prazosin); assay type: cell membranes, Wistar, Submaxillary gland, Membrane; settings: Not Active = under 50% inhibition at 10 µM
T1 sequence (P43140 whole entry): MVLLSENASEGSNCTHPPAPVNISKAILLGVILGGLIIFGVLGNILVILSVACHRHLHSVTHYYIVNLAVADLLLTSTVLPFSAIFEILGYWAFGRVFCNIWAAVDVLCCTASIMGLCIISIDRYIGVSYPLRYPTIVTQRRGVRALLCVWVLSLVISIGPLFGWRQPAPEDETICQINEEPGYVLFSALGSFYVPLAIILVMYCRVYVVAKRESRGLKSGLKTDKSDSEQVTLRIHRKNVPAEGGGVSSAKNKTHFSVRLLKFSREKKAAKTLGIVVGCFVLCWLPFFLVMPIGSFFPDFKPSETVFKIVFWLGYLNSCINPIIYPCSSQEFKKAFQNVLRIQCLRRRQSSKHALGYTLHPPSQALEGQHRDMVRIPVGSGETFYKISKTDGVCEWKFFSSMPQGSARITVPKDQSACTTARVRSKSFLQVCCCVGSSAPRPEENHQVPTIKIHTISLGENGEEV

[2] = target: Beta-1 adrenergic receptor (Homo sapiens, UniProt P08588); assay: DRUGMATRIX: Adrenergic beta1 radioligand binding (ligand: [125I] Cyanopindolol); assay type: cell membranes, CHO-K1, Membrane; settings: cho-k1; Not Active = under 50% inhibition at 10 µM
[3] = DRUGMATRIX: beta-Lactamase enzyme inhibition (substrate: Nitrocefin); set-up: species or system Bacillus cereus; settings: Not Active = under 50% inhibition at 10 µM
[4] = DRUGMATRIX: Calcium Channel Type L, Benzothiazepine radioligand binding (ligand: [3H] Diltiazem); assay type: cell membranes, Rattus norvegicus, Wistar, Brain, Membrane; settings: Not Active = under 50% inhibition at 10 µM
[5] = target: Vascular endothelial growth factor receptor 1 (Homo sapiens, UniProt P17948); assay type: cell-based; settings: huvec; note: in other assays of this panel Not Active means under 50% inhibition at 10 µM
D(4) dopamine receptor = target: T2, D(4) dopamine receptor (Homo sapiens, UniProt P21917); assay: DRUGMATRIX: Dopamine D4.2 radioligand binding (ligand: [3H] Spiperone); assay type: cell membranes, CHO-K1, Membrane; settings: cho-k1; Not Active = under 50% inhibition at 10 µM
T2 sequence (P21917 whole entry): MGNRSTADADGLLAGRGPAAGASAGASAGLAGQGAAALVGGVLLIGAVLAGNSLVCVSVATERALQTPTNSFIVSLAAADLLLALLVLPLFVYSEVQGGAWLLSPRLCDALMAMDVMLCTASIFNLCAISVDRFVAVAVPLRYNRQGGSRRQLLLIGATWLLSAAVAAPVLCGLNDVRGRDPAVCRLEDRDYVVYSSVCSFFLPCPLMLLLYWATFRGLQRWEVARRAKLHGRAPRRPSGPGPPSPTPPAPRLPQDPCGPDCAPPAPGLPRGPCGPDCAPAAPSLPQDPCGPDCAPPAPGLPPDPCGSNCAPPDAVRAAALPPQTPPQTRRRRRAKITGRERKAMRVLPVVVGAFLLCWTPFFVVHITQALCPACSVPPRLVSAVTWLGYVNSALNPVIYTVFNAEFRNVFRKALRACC

[6] = DRUGMATRIX: GABAA, Chloride Channel, TBOB radioligand binding (ligand: [3H] TBOB); assay type: cell membranes, Rattus norvegicus, Wistar, Cerebral cortex, Membrane; settings: Not Active = under 50% inhibition at 10 µM
[7] = DRUGMATRIX: Glutamate, NMDA, Phencyclidine radioligand binding (ligand: [3H] TCP); assay type: cell membranes, Rattus norvegicus, Wistar, Cerebral cortex, Membrane; settings: Not Active = under 50% inhibition at 10 µM
Histamine H2 receptor = Histamine H2 receptor (Homo sapiens, UniProt P25021); assay type: cell membranes, CHO-K1, Membrane; settings: cho-k1; note: in other assays of this panel Not Active means under 50% inhibition at 10 µM
Leukotriene C4 synthase = target: T3, Leukotriene C4 synthase (Cavia porcellus, UniProt A6XA80); assay: biochemical; assay type: tissue-based, Lung;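 note: enzyme inhibition assay of leukotriene C4 synthase, using LTA4 as the substrate; in other assays of this panel Not Active means under 50% inhibition at 10 µM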
T3 sequence (A6XA80 whole entry): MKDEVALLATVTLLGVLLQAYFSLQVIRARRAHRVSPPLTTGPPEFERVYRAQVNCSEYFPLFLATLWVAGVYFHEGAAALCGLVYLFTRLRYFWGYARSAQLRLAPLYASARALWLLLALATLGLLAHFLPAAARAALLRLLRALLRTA

Melanocortin receptor 3 = Melanocortin receptor 3 (Homo sapiens, UniProt P41968); assay type: cell membranes, Membrane; settings: hek293; note: in other assays of this panel Not Active means under 50% inhibition at 10 µM
Melanocortin receptor 4 = Melanocortin receptor 4 (Homo sapiens, UniProt P32245); assay type: cell membranes, Membrane; settings: hek293; note: in other assays of this panel Not Active means under 50% inhibition at 10 µM
[8] = target: T4, Neuropeptide Y receptor type 2 (Homo sapiens, UniProt P49146); assay type: cell membranes, Membrane; settings: kan-ts; note: in other assays of this panel Not Active means under 50% inhibition at 10 µM
T4 sequence (P49146 whole entry): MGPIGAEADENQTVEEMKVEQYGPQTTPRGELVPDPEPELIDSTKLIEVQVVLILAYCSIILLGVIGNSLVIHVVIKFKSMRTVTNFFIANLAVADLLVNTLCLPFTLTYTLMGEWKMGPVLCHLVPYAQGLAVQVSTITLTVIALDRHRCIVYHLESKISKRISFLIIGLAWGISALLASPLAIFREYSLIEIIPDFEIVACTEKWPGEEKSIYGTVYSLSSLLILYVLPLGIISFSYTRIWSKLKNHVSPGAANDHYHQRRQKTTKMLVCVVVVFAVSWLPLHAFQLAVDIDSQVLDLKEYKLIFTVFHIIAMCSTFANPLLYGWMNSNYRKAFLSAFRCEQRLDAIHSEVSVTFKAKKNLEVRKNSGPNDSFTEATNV

[9] = DRUGMATRIX: Nicotinic Acetylcholine radioligand binding (ligand: [125I] Epibatidine); assay type: cell membranes, Membrane; settings: imr-32; Not Active = under 50% inhibition at 10 µM
[10] = DRUGMATRIX: Platelet-Derived Growth Factor (PDGF) radioligand binding (ligand: [125I] PDGF); assay type: cell-based; settings: nih3t3; Not Active = under 50% inhibition at 10 µM
Progesterone receptor = target: T5, Progesterone receptor (Bos taurus, UniProt Q690N0); assay: DRUGMATRIX: Progesterone radioligand binding (ligand: [3H] R-5020); assay type: tissue-based, Uterus; settings: Not Active = under 50% inhibition at 10 µM
T5 sequence (Q690N0 whole entry): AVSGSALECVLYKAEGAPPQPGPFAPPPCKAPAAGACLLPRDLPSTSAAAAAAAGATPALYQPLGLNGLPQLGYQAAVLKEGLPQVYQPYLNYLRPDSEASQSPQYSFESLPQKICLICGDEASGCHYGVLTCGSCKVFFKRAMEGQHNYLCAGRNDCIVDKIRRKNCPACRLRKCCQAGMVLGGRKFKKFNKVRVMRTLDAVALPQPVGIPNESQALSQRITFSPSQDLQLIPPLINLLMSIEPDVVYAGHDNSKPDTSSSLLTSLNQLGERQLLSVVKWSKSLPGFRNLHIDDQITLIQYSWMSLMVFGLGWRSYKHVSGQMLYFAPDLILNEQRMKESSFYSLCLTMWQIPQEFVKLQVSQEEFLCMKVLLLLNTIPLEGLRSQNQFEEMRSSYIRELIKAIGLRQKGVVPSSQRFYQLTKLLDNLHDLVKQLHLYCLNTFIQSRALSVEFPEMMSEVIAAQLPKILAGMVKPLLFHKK

[11] = target: Tyrosine-protein kinase Fyn (Homo sapiens, UniProt P06241); assay: biochemical; assay type: cell-based, Insect cells; settings: insect cells
Tyrosine-protein kinase Fyn, sequence (P06241 whole entry): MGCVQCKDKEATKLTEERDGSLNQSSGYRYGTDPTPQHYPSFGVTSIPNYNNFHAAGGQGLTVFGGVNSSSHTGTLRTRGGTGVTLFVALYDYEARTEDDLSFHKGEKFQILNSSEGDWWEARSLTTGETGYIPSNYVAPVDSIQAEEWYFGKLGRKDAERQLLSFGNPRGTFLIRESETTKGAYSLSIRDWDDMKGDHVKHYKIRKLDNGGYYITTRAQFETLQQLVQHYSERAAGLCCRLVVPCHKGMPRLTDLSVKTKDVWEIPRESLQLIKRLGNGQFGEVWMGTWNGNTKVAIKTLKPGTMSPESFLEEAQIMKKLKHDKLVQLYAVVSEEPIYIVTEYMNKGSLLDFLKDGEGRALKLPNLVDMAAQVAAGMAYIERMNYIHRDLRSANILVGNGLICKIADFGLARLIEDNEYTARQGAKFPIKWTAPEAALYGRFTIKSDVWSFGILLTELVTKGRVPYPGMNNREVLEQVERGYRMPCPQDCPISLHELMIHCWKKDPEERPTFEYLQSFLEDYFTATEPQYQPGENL

Histamine H2 receptor, sequence (P25021 whole entry): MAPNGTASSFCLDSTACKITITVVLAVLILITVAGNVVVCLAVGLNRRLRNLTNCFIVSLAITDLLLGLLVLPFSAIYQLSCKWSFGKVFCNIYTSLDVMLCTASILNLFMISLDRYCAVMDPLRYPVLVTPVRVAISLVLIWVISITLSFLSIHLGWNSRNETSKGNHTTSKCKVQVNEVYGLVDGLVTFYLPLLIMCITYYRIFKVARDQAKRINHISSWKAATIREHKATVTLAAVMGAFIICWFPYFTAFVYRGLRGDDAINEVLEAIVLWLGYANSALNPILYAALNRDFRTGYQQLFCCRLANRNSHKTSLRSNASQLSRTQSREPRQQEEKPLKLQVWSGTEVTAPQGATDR
Melanocortin receptor 4, sequence (P32245 whole entry): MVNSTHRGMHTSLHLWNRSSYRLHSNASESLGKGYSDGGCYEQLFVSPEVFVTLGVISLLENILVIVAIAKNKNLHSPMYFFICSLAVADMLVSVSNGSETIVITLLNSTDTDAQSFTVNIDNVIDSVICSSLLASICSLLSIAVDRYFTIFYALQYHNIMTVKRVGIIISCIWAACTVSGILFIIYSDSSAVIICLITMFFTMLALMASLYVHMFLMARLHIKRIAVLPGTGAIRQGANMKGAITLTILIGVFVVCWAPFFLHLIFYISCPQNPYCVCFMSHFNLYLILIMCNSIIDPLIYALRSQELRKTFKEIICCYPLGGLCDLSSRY
Melanocortin receptor 3, sequence (P41968 whole entry): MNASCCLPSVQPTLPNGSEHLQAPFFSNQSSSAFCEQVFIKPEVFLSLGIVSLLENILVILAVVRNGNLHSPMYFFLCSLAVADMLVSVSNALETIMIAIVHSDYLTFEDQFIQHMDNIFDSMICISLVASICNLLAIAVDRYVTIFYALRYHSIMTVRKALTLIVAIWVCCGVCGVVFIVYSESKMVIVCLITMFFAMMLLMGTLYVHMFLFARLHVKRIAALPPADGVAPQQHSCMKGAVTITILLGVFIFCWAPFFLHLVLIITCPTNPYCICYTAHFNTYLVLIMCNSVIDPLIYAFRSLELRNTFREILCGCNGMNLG
Vascular endothelial growth factor receptor 1, sequence (P17948 whole entry): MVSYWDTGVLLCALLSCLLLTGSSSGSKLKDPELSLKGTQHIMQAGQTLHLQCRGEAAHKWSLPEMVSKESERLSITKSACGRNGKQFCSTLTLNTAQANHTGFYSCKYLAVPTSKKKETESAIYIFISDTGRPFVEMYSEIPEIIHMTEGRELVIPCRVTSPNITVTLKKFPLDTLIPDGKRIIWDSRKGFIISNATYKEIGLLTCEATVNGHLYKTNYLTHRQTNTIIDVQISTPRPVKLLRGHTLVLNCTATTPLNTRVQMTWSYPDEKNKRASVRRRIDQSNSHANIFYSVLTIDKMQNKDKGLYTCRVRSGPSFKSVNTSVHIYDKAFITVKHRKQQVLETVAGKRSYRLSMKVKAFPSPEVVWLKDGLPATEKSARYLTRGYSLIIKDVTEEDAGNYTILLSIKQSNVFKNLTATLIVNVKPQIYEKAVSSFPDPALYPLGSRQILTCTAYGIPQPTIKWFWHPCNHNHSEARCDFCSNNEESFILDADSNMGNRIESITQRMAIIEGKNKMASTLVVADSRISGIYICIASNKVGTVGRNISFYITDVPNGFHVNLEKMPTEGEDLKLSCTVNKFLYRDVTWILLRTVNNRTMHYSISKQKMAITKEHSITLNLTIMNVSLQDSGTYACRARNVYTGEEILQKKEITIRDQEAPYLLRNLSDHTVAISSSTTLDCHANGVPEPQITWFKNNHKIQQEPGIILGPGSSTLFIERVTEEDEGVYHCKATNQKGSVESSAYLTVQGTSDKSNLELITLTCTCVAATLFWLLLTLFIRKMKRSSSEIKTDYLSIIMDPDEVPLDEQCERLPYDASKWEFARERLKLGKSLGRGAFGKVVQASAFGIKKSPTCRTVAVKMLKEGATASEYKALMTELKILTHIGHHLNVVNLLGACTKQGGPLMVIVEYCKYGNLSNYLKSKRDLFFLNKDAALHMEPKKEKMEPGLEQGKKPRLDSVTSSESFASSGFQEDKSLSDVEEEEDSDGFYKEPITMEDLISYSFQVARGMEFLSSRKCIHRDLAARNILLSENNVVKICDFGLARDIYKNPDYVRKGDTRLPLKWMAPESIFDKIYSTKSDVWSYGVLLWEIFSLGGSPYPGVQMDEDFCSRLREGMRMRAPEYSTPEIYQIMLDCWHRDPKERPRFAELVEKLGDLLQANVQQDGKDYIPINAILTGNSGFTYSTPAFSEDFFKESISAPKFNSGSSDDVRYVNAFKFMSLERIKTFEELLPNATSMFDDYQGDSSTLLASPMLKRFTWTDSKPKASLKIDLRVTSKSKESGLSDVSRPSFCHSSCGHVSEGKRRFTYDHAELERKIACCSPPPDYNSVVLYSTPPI
Beta-1 adrenergic receptor, sequence (P08588 whole entry): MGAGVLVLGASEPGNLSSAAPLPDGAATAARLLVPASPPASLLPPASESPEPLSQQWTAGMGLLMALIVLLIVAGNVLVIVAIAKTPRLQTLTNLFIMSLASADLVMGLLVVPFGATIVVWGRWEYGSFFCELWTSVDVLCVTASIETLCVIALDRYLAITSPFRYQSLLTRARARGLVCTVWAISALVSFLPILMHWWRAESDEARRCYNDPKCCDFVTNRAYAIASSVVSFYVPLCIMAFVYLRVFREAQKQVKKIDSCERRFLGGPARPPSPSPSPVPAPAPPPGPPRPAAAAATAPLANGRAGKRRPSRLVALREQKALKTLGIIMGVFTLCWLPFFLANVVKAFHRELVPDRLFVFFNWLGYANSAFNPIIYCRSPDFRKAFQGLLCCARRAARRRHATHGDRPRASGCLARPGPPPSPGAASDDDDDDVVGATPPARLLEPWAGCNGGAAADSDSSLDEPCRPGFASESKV

SMILES | IC50 [1] | IC50 [2] | IC50 [3] | Ki [3] | IC50 [5] | IC50 (D(4) dopamine receptor) | IC50 [6] | Ki [6] | IC50 [7] | Ki [7] | IC50 (Histamine H2 receptor) | IC50 (Leukotriene C4 synthase) | IC50 (Melanocortin receptor 3) | IC50 (Melanocortin receptor 4) | IC50 [8] | IC50 [9] | Ki [9] | IC50 [10] | Ki [10] | IC50 [11] | further results
COC(=O)C1=C(C)NC(C)=C(C(=O)OC)C1c1ccccc1[N+](=O)[O-] [NIFEDIPINE] | Not Active | Not Active | Not Active | Not Active | Not Active | Not Active | Not Active | Not Active | Not Active | Not Active | Not Active | Not Active | Not Active | Not Active | Not Active | Not Active | Not Active | Not Active | Not Active | Not Active | IC50 ([4]; read-out: IC50): 8.67 nM; Ki ([4]; read-out: Ki): 7.71 nM; IC50 (Progesterone receptor): Not Active
NNc1ccccc1 [PHENYLHYDRAZINE] | Not Active | Not Active | Not Active | Not Active | Not Active | Not Active | Not Active | Not Active | Not Active | Not Active | Not Active | Not Active | Not Active | Not Active | Not Active | Not Active | Not Active | Not Active | Not Active | Not Active | IC50 [4]: Not Active; Ki [4]: Not Active; IC50 (Progesterone receptor): Not Active
CC(=O)[C@H]1CC[C@H]2[C@@H]3CCC4=CC(=O)CC[C@]4(C)[C@H]3CC[C@]12C [PROGESTERONE] | Not Active | Not Active | Not Active | Not Active | Not Active | Not Active |  |  | Not Active | Not Active | Not Active | Not Active | Not Active | Not Active | Not Active | Not Active | Not Active | Not Active | Not Active | Not Active | IC50 [4]: Not Active; Ki [4]: Not Active; IC50 ([6]; read-out: IC50): 24900 nM; Ki ([6]; read-out: Ki): 22300 nM; IC50 (Progesterone receptor; read-out: IC50): 28 nM; Ki (Progesterone receptor; read-out: Ki): 3.62 nM
NC(=O)c1ncn([C@@H]2O[C@H](CO)[C@@H](O)[C@H]2O)n1 [RIBAVIRIN] | Not Active | Not Active | Not Active | Not Active | Not Active | Not Active | Not Active | Not Active | Not Active | Not Active | Not Active | Not Active | Not Active | Not Active | Not Active | Not Active | Not Active | Not Active | Not Active | Not Active | IC50 [4]: Not Active; Ki [4]: Not Active; IC50 (Progesterone receptor): Not Active
O=[N+]([O-])c1cc([As](=O)(O)O)ccc1O [ROXARSONE] | Not Active | Not Active | Not Active | Not Active | Not Active | Not Active | Not Active | Not Active | Not Active | Not Active | Not Active | Not Active | Not Active | Not Active | Not Active | Not Active | Not Active | Not Active | Not Active | Not Active | Ki [1]: Not Active; Ki [2]: Not Active; IC50 [4]: Not Active; Ki [4]: Not Active; Ki [5]: Not Active; Ki (D(4) dopamine receptor): Not Active; Ki (Histamine H2 receptor): Not Active; Ki (Leukotriene C4 synthase): Not Active; Ki (Melanocortin receptor 3): Not Active; Ki (Melanocortin receptor 4): Not Active; Ki [8]: Not Active; IC50 (Progesterone receptor): Not Active; Ki (Progesterone receptor): Not Active; Ki [11]: Not Active
CC[C@H]1OC(=O)[C@H](C)[C@@H](O[C@H]2C[C@@](C)(OC)[C@@H](O)[C@H](C)O2)[C@H](C)[C@@H](O[C@@H]2O[C@H](C)C[C@H](N(C)C)[C@H]2O)[C@](C)(O)C[C@@H](C)/C(=N\OCOCCOC)[C@H](C)[C@@H](O)[C@]1(C)O [ROXITHROMYCIN] | Not Active | Not Active | Not Active | Not Active | Not Active | Not Active | Not Active | Not Active | Not Active | Not Active | Not Active | Not Active | Not Active | Not Active | Not Active | Not Active | Not Active | Not Active | Not Active | Not Active | IC50 [4]: Not Active; Ki [4]: Not Active; IC50 (Progesterone receptor): Not Active
